Measurements from patent US7759350B2, “Pyrimidine carboxamides” (Orchid Research Laboratories Ltd., priority 2005, dated 2010).
Values belong to the compound of their own block, whether it stands above or below them.

How the values were obtained:
NCI-H460 = test: Anti-cancer screen (MTT), NCI-H460; type: cell-based
Description: (§1) Experimental drugs are screened for anti-cancer activity in three cell lines for their GI50, TGI and LC50 values (using five concentrations for each compound). The cell lines are maintained in DMEM containing 10% fetal bovine serum. 96 well microtiter plates are inoculated with cells in 100 μL for 24 h at 37° C., 5% CO2, 95% air and 100% relative humidity. 5000 HCT116 cells/well, 5000 NCIH460 cells/well, 10000 U251 cells/well and 5000 MDAMB231 cells/well are plated. A separate plate with these cell lines is also inoculated to determine cell viability before the addition of the compounds (T0).
Following 24 hours incubation, experimental drugs are added to the 96 well plates. […] Compounds are dissolved in dimethylsulfoxide (DMSO) to make 20 mM stock solutions on the day of drug addition and frozen at −20° C. […] Standard drugs whose anti-cancer activity has been well documented and which are regularly used are doxorubicin and SAHA.
(§2) Cells are incubated with compounds for 48 hours followed by the addition of 10 μL 3-(4,5-Dimethyl-2-thiazolyl)-2,5-diphenyl-2H-tetrazolium (MTT) solution per well and a subsequent incubation at 37° C., 5% CO2, 95% air and 100% relative humidity, protected from light. After 4 hours, well contents are aspirated carefully followed by addition of 150 μL DMSO per well. Plates are agitated to ensure solution of the formazan crystals in dimethylsulphoxide and absorbance read at 570 nm.
Percent growth is calculated for each compound's concentration relative to the control and zero measurement wells (To; viability right before compound addition). If a test well's O.D. value is greater than the To measurement for that cell line % Growth=(test−zero)/(control−zero)×100
If a test well's O.D. value is lower than the T0 measurement for that cell line, […]

COX-2 = target: T1, COX-2 (Homo sapiens, UniProt P35354); test: Human whole blood assay, COX-2 inhibition (PGE2 after LPS); type: cell-based; conditions: LPS stimulated
T1 construct: Fresh blood was collected in tubes containing sodium heparin by vein puncture from healthy male volunteers; endogenous in cells; host or cells: human whole blood from healthy male volunteers, stimulated with LPS
T1 sequence (P35354 18-604): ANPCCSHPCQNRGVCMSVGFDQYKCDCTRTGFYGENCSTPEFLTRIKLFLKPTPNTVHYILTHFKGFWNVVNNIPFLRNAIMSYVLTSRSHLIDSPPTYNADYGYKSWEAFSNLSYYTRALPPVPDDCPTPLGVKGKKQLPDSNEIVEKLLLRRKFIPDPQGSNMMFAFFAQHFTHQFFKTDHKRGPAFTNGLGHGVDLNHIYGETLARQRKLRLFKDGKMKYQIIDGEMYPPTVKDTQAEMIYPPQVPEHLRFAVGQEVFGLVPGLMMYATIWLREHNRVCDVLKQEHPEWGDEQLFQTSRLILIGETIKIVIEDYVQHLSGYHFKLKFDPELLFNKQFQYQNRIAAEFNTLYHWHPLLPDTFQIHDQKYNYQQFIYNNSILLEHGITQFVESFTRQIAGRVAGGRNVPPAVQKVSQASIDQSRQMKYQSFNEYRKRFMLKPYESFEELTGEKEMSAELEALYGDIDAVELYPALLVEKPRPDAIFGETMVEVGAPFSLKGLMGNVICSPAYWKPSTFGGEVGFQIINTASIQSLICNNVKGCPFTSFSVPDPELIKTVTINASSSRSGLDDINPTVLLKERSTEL
Description: Human whole blood provides a protein and cell rich milieu appropriate for the study of biochemical efficacy of anti-inflammatory compounds such as selective COX-2 inhibitors. […] This is correlating with the observation that COX-2 inhibitors have no effect on prostaglandin E2 (PGE2) production in normal blood. These inhibitors were active only after incubation of human blood with lipopolysaccharide (LPS), which induces COX-2 production in the blood.
Fresh blood was collected in tubes containing sodium heparin by vein puncture from healthy male volunteers. […] Then test compounds (at various concentrations) or vehicle were added to blood. After that blood was stimulated with LPS B: 4 (10 μg/ml) and incubated for another 18 hours at 37° C. water bath. After which the blood was centrifuged, plasma was separated and stored at −80° C. (J. Pharmacol. Exp. Ther, 271, 1705, 1994; Proc. Natl. Acad. Sci. USA., 96, 7563, 1999). The plasma was assayed for PGE2 using Cayman ELISA kit as per the procedure outlined by the manufacturer (Cayman Chemicals, Ann Arbor, USA).

[1] = test system: Carrageenan induced paw edema in rat; test: Carrageenan induced paw edema test in rat; type: in vivo; conditions: 5 mg/kg oral; male wistar rats; 3 hours after carrageenan
Description: Carrageenan Induced Paw Edema Test in Rat
The carrageenan paw edema test was performed as described by Winter et al (Proc. Soc. Exp. Biol. Med, 111, 544, 1962). Male wistar rats were selected with body weights equivalent within each group. The rats were fasted for eighteen hours with free access to water. The rats were dosed orally with the test compound suspended in vehicle containing 0.25% carboxymethylcellulose and 0.5% Tween 80. The control rats were administered with vehicle alone. After an hour, the rats were injected with 0.1 ml of 1% Carrageenan solution in 0.9% saline into the sub-plantar surface of the right hind paw. Paw volume was measured using digital plethysmograph before and after 3 hours of carrageenan injection. The average of foot swelling in drug treated animals was compared with that of control animals. Anti-inflammatory activity was expressed as the percentage inhibition of edema compared with control group [Arzneim-Forsch/Drug Res., 43 (I), 1,44-50,1993; Otterness and Bliven, Laboratory Models for Testing NSAIDs, In Non-Steroidal Anti-Inflammatory Drugs, (J. Lombardino, ed. 1985)].

MCF-7 = test: Anti-cancer screen (MTT), MCF-7; type: cell-based
Description: [The source words this procedure for another cell line and reports this cell line under the same test.] as §1
(§3) Following 24 hours incubation, experimental drugs are added to the 96 well plates. Each plate contains one of the above cell lines and the following in triplicate: five different concentrations (0.01, 0.1, 1, 10 and 100 μM) of four different compounds, appropriate dilutions of a cytotoxic standard and control (untreated) wells. Compounds are dissolved in dimethylsulfoxide (DMSO) to make 20 mM stock solutions on the day of drug addition and frozen at −20° C. Serial dilutions of these 20 mM stock solutions are made in complete growth medium such that 100 μL of these drug solutions in medium, of final concentrations equaling 0.01, 0.1, 1, 10 and 100 μM can be added to the cells in triplicate. Standard drugs whose anti-cancer activity has been well documented and which are regularly used are doxorubicin and SAHA.
as §2
(§4) Percent growth is calculated for each compound's concentration relative to the control and zero measurement wells (To; viability right before compound addition). […]

IL-1β = test: In vitro measurement of IL-1β in human PBMC; type: cell-based; conditions: Conc. 0.1 μM, LPS
Description: (§5) In vitro Measurement of Interleukin-6 (IL-6) & Interleukin-1β (IL1β)
(§6) This assay determines the effect of test compounds on the production of IL-6 and IL1β in human PBMC (Physiol. Res. 52: 593-598, 2003). Compounds were tested for their ability to inhibit the activity of IL-6 and IL1β in human PBMC. PBMC were isolated from blood using BD Vacutainer CPT™ Cell preparation tube (BD Bio Science) and suspended in RPMI medium. The test compounds were preincubated with PBMC (0.5 million/incubation well) for 15 minutes at 37° C. and then stimulated with Lipopolysaccharide (Escherichia coli: B4; 1 μg/ml) for 18 hours at 37° C. in 5% CO2. The levels of IL-6 and IL1β in cell culture medium were estimated using enzyme linked Immunosorbent assay performed in a 96 well format as per the procedure of the manufacturer (R&D Systems, Inc. 614 McKinley Place Nebr., Minneapolis, Minn. 55413, USA).

IL-6 = test: In vitro measurement of IL-6 in human PBMC; type: cell-based; conditions: Conc. 0.1 μM, LPS
Description: as §5, §6

SF-268 = test: Anti-cancer screen (MTT), SF-268; type: cell-based
Description: [The source words this procedure for another cell line and reports this cell line under the same test.] as §1, §3, §2, §4

MDAMB-231 = test: Anti-cancer screen (MTT), MDAMB-231; type: cell-based; conditions: Homo sapiens, MDA-MB-231, 48 hours
Description: as §1
Following 24 hours incubation, experimental drugs are added to the 96 well plates. […]
as §2, with “After 4 hours, well contents are aspirated carefully followed by addition of 150 μL DMSO per well.” left out
as §4

inhibition at 0.25 µM (COX-2; Conc. 0.25 μM): 36.8%
Structure (SMILES): CNc1nc(-c2ccc(SC)cc2)nc(SC)c1C(=O)Nc1ccc(C)cc1 [Example 5, 4-(Methylamino)-N-(4-methylphenyl)-6-(methylthio)-2-[4-(methylthio)phenyl]pyrimidine-5-carboxamide]
Percentage growth Lung NCI-H460 (NCI-H460; Conc. 50 μM): 48% | Inhibition of edema (%) at 5 mg/kg [1]: 53.07% | Percentage growth Breast MCF-7 (MCF-7; Conc. 50 μM): 160% | IL-1β Inhibition (%) (IL-1β): Not active | inhibition at 0.1 µM (IL-6): 14.9% | Percentage growth CNS SF-268 (SF-268; Conc. 50 μM): 106%

inhibition at 10 µM (COX-2; Conc. 10 μM): 29.2%
Structure (SMILES): CNc1nc(-c2ccc(SC)cc2)nc(SC)c1C(=O)Nc1ccc(C)c(C)c1 [Example 9, N-(3,4-Dimethylphenyl)-4-(methylamino)-6-(methylthio)-2-[4-(methylthio)phenyl]pyrimidine-5-carboxamide]
Percentage growth Lung NCI-H460 (NCI-H460; Conc. 100 μM): 0% | Percentage growth Breast MCF-7 (MCF-7; Conc. 100 μM): 6% | Percentage growth CNS SF-268 (SF-268; Conc. 100 μM): 5%

GI50 (NCI-H460; Homo sapiens, NCI-H460, 48 hours, MTT): 5.5 µM | GI50 (MDAMB-231): 0.1 µM
Structure (SMILES): CNc1nc(-c2ccncc2)nc(SC)c1C(=O)Nc1ccc(C)c(C)c1 [Example 25, N-(3,4-Dimethylphenyl)-4-(methylamino)-6-(methylthio)-2-pyridin-4-ylpyrimidine-5-carboxamide]
